Experimental data: ChEMBL document CHEMBL1833945, “Synthesis and anticonvulsant activity of new N-Mannich bases derived from 5-cyclopropyl-5-phenyl- and 5-cyclopropyl-5-(4-chlorophenyl)-imidazolidine-2,4-diones” (Bioorg Med Chem, 2011)
Active and inactive are the calls of the source. The rule behind the calls is not given here.

Columns and labels:
Rattus norvegicus [1] = test: Neurotoxicity in Sprague-Dawley albino rat assessed as motor impairment at 30 mg/kg, po after 4 hrs by rotarod test; assay type: toxicity, organism-based; parameters: dose 30 mg/kg, route oral; conditions: in vivo
Rattus norvegicus [2] = test: Neurotoxicity in Sprague-Dawley albino rat assessed as motor impairment at 30 mg/kg, po after 2 hrs by rotarod test; assay type: toxicity, organism-based; parameters: dose 30 mg/kg, route oral; conditions: in vivo
Rattus norvegicus [3] = test: Neurotoxicity in Sprague-Dawley albino rat assessed as motor impairment at 30 mg/kg, po after 1 hrs by rotarod test; assay type: toxicity, organism-based; parameters: dose 30 mg/kg, route oral; conditions: in vivo
Rattus norvegicus [4] = test: Neurotoxicity in Sprague-Dawley albino rat assessed as motor impairment at 30 mg/kg, po after 0.5 hrs by rotarod test; assay type: toxicity, organism-based; parameters: dose 30 mg/kg, route oral; conditions: in vivo
Rattus norvegicus [5] = test: Neurotoxicity in Sprague-Dawley albino rat assessed as motor impairment at 30 mg/kg, po after 0.25 hrs by rotarod test; assay type: toxicity, organism-based; parameters: dose 30 mg/kg, route oral; conditions: in vivo
Rattus norvegicus [6] = test: Anticonvulsant activity in Sprague-Dawley albino rat assessed as protection against maximal electroshock-induced seizures at 30 mg/kg, po after 4 hrs; assay type: functional, organism-based; parameters: dose 30 mg/kg
Rattus norvegicus [7] = test: Anticonvulsant activity in Sprague-Dawley albino rat assessed as protection against maximal electroshock-induced seizures at 30 mg/kg, po after 0.5 hrs; assay type: functional, organism-based; parameters: dose 30 mg/kg
Rattus norvegicus [8] = test: Anticonvulsant activity in Sprague-Dawley albino rat assessed as protection against maximal electroshock-induced seizures at 30 mg/kg, po after 0.25 hrs; assay type: functional, organism-based; parameters: dose 30 mg/kg
Mus musculus [9] = test: Neurotoxicity in CF1 albino mouse assessed as impair in motor coordination at 300 mg/kg, ip after 4 hrs by rotarod test; assay type: toxicity, organism-based; parameters: dose 300 mg/kg, route intraperitoneal; conditions: in vivo
Mus musculus [10] = test: Neurotoxicity in CF1 albino mouse assessed as impair in motor coordination at 300 mg/kg, ip after 0.5 hrs by rotarod test; assay type: toxicity, organism-based; parameters: dose 300 mg/kg, route intraperitoneal; conditions: in vivo
Rattus norvegicus [11] = organism: Rattus norvegicus; test: Protective index, ratio of TD50 for neurotoxicity in Sprague-Dawley albino rat to ED50 for inhibition of maximal electroshock-induced seizures in Sprague-Dawley albino rat; assay type: functional
[12] = Neurotoxicity in oral dosed Sprague-Dawley albino rat assessed as motor impairment by rotarod test; assay type: toxicity, organism-based; conditions: in vivo
Rattus norvegicus [13] = test: Anticonvulsant activity in po dosed Sprague-Dawley albino rat assessed as protection against maximal electroshock-induced seizures; assay type: functional
Rattus norvegicus [14] = test: Anticonvulsant activity in po dosed Sprague-Dawley albino rat assessed as time to peak effect; assay type: functional
Mus musculus [15] = test: Anticonvulsant activity in ip dosed CF1 albino mouse assessed as protection against maximal electroshock-induced seizures after 4 hrs; assay type: functional; conditions: read-out: MED
[16] = Lipophilicity, log P of compound; assay type: physicochemical; conditions: octanol/water
Mus musculus [17] = test: Anticonvulsant activity in ip dosed CF1 albino mouse assessed as protection against maximal electroshock-induced seizures after 0.5 hrs; assay type: functional; conditions: read-out: MED
Mus musculus [18] = test: Toxicity in subcutaneous pentylenetetrazole-induced CF1 albino mouse assessed as myoclonic jerks at 300 mg/kg, ip after 0.5 hrs; assay type: organism-based; parameters: dose 300 mg/kg; conditions: in vivo, sc
Mus musculus [19] = test: Toxicity in subcutaneous pentylenetetrazole-induced CF1 albino mouse assessed as myoclonic jerks at 300 mg/kg, ip after 4 hrs; assay type: organism-based; parameters: dose 300 mg/kg; conditions: in vivo, sc
Mus musculus [20] = test: Neurotoxicity in ip dosed CF1 albino mouse assessed as minimum dose required to cause impair in motor coordination after 4 hrs by rotarod test; assay type: toxicity, organism-based; conditions: in vivo
Mus musculus [21] = test: Neurotoxicity in ip dosed CF1 albino mouse assessed as minimum dose required to cause impair in motor coordination after 0.5 hrs by rotarod test; assay type: toxicity, organism-based; conditions: in vivo
Mus musculus [22] = test: Toxicity in subcutaneous pentylenetetrazole-induced CF1 albino mouse assessed as myoclonic jerks at 100 mg/kg, ip after 4 hrs; assay type: organism-based; parameters: dose 100 mg/kg; conditions: in vivo, sc
Mus musculus [23] = test: Neurotoxicity in CF1 albino mouse assessed as loss of rotard grasping at 300 mg/kg, ip after 0.5 hrs by rotarod test; assay type: toxicity, organism-based; parameters: dose 300 mg/kg, route intraperitoneal; conditions: in vivo
Mus musculus [24] = test: Anticonvulsant activity in ip dosed CF1 albino mouse assessed as protection against subcutaneous pentylenetetrazole-induced seizures after 4 hrs; assay type: functional; conditions: read-out: MED
Mus musculus [25] = test: Anticonvulsant activity in ip dosed CF1 albino mouse assessed as protection against subcutaneous pentylenetetrazole-induced seizures after 0.5 hrs; assay type: functional; conditions: read-out: MED
Mus musculus [26] = test: Neurotoxicity in CF1 albino mouse assessed as loss of rotard grasping at 300 mg/kg, ip after 4 hrs by rotarod test; assay type: toxicity, organism-based; parameters: dose 300 mg/kg, route intraperitoneal; conditions: in vivo
Mus musculus [27] = test: Neurotoxicity in CF1 albino mouse assessed as tremors at 300 mg/kg, ip after 0.5 hrs by rotarod test; assay type: toxicity, organism-based; parameters: dose 300 mg/kg, route intraperitoneal; conditions: in vivo
Mus musculus [28] = test: Toxicity in subcutaneous pentylenetetrazole-induced CF1 albino mouse assessed as myoclonic jerks at 100 mg/kg, ip after 0.5 hrs; assay type: organism-based; parameters: dose 100 mg/kg; conditions: in vivo, sc
Rattus norvegicus [29] = test: Anticonvulsant activity in Sprague-Dawley albino rat assessed as protection against subcutaneous pentylenetetrazole-induced seizures at 50 mg/kg, po after 2 hrs; assay type: functional, organism-based; parameters: dose 50 mg/kg
Rattus norvegicus [30] = test: Anticonvulsant activity in Sprague-Dawley albino rat assessed as protection against subcutaneous pentylenetetrazole-induced seizures at 50 mg/kg, po after 1 hrs; assay type: functional, organism-based; parameters: dose 50 mg/kg
Rattus norvegicus [31] = test: Anticonvulsant activity in Sprague-Dawley albino rat assessed as protection against subcutaneous pentylenetetrazole-induced seizures at 50 mg/kg, po after 0.5 hrs; assay type: functional, organism-based; parameters: dose 50 mg/kg
Rattus norvegicus [32] = test: Anticonvulsant activity in Sprague-Dawley albino rat assessed as protection against subcutaneous pentylenetetrazole-induced seizures at 50 mg/kg, po after 0.25 hrs; assay type: functional, organism-based; parameters: dose 50 mg/kg
Rattus norvegicus [33] = test: Neurotoxicity in Sprague-Dawley albino rat assessed as motor impairment at 50 mg/kg, po after 4 hrs by rotarod test; assay type: toxicity, organism-based; parameters: dose 50 mg/kg, route oral; conditions: in vivo
Rattus norvegicus [34] = test: Neurotoxicity in Sprague-Dawley albino rat assessed as motor impairment at 50 mg/kg, po after 2 hrs by rotarod test; assay type: toxicity, organism-based; parameters: dose 50 mg/kg, route oral; conditions: in vivo
Rattus norvegicus [35] = test: Neurotoxicity in Sprague-Dawley albino rat assessed as motor impairment at 50 mg/kg, po after 1 hrs by rotarod test; assay type: toxicity, organism-based; parameters: dose 50 mg/kg, route oral; conditions: in vivo
Rattus norvegicus [36] = test: Neurotoxicity in Sprague-Dawley albino rat assessed as motor impairment at 50 mg/kg, po after 0.5 hrs by rotarod test; assay type: toxicity, organism-based; parameters: dose 50 mg/kg, route oral; conditions: in vivo
Rattus norvegicus [37] = test: Neurotoxicity in Sprague-Dawley albino rat assessed as motor impairment at 50 mg/kg, po after 0.25 hrs by rotarod test; assay type: toxicity, organism-based; parameters: dose 50 mg/kg, route oral; conditions: in vivo
Mus musculus [38] = test: Neurotoxicity in CF1 albino mouse assessed as minimum dose causing loss of righting reflex at 300 mg/kg, ip after 4 hrs by rotarod test; assay type: toxicity, organism-based; parameters: dose 300 mg/kg, route intraperitoneal; conditions: in vivo
Mus musculus [39] = test: Anticonvulsant activity in CF1 albino mouse assessed as time to peak effect at 100 mg/kg, ip; assay type: functional; conditions: route intraperitoneal
[40] = Neurotoxicity in ip dosed CF1 albino mouse assessed as impair in motor coordination by rotarod test; assay type: toxicity, organism-based; conditions: in vivo
Rattus norvegicus [41] = test: Anticonvulsant activity in Sprague-Dawley albino rat assessed as protection against subcutaneous pentylenetetrazole-induced seizures at 50 mg/kg, po after 4 hrs; assay type: functional, organism-based; parameters: dose 50 mg/kg
Mus musculus [42] = test: Anticonvulsant activity in CF1 albino mouse assessed as protection against maximal electroshock-induced seizures at 300 mg/kg, ip after 4 hrs; assay type: functional, organism-based; parameters: dose 300 mg/kg
Mus musculus [43] = test: Anticonvulsant activity in CF1 albino mouse assessed as protection against maximal electroshock-induced seizures at 300 mg/kg, ip after 0.5 hrs; assay type: functional, organism-based; parameters: dose 300 mg/kg
Rattus norvegicus [44] = organism: Rattus norvegicus
Description: Protective index, ratio of TD50 for neurotoxicity in Sprague-Dawley albino rat to ED50 for inhibition of subcutaneous pentylenetetrazole-induced seizures in Sprague-Dawley albino rat

Row | SMILES | Activity (Rattus norvegicus [1]) | Activity (Rattus norvegicus [2]) | Activity (Rattus norvegicus [3]) | Activity (Rattus norvegicus [4]) | Activity (Rattus norvegicus [5]) | Activity (Mus musculus [9]) | Activity (Mus musculus [10]) | TD50 [12] [mg/kg] | ED50 (Rattus norvegicus [13]) [mg/kg] | Time (Rattus norvegicus [14]) [h] | minimal effective dose (Mus musculus [15]) [mg/kg] | logP [16] | minimal effective dose (Mus musculus [17]) [mg/kg] | minimal effective dose (Mus musculus [24]) [mg/kg] | minimal effective dose (Mus musculus [25]) [mg/kg] | other results
1 | O=C(OCc1ccccc1)N1CCN(CN2C(=O)NC(c3ccccc3)(C3CC3)C2=O)CC1 (centres undefined) | Non-toxic | Non-toxic | Non-toxic | Non-toxic | Non-toxic | Non-toxic | Non-toxic | > 60 | 10 | 6 | 100 | 2.92 | 300 | – | – | Activity (Rattus norvegicus [6]): Active; Activity (Rattus norvegicus [7]): inactive; Activity (Rattus norvegicus [8]): inactive; PI (Rattus norvegicus [11]): >5.98; Activity (Mus musculus [18]): Toxic; Activity (Mus musculus [19]): Toxic
2 | O=C1NC(c2ccc(Cl)cc2)(C2CC2)C(=O)N1CN1CCN(CCc2ccccc2)CC1 (centres undefined) | – | – | – | – | – | – | – | – | – | – | 300 | 3.97 | 300 | – | – | MTC (Mus musculus [20]): 30 mg/kg; MTC (Mus musculus [21]): 30 mg/kg; Activity (Mus musculus [18]): Toxic; Activity (Mus musculus [22]): Toxic
3 | CCOC(=O)N1CCN(CN2C(=O)NC(c3ccccc3)(C3CC3)C2=O)CC1 (centres undefined) | – | – | – | – | – | – | – | – | – | – | 100 | 1.76 | 100 | 300 | 100 | Activity (Mus musculus [23]): Toxic; Activity (Mus musculus [26]): Toxic; Activity (Mus musculus [27]): Toxic
4 | COCCN1CCN(CN2C(=O)NC(c3ccccc3)(C3CC3)C2=O)CC1 (centres undefined) | – | – | – | – | – | – | – | – | – | – | 100 | 1.46 | 100 | – | – | MTC (Mus musculus [20]): 30 mg/kg; MTC (Mus musculus [21]): 30 mg/kg; Activity (Mus musculus [28]): Toxic; Activity (Mus musculus [22]): Toxic
5 | O=C1NC(c2ccccc2)(C2CC2)C(=O)N1CN1CCOCC1 (centres undefined) | Non-toxic | Non-toxic | Non-toxic | Non-toxic | Non-toxic | – | – | < 150 | 13.9 | 4 | 30 | 1.33 | 100 | 300 | 30 | Activity (Rattus norvegicus [29]): Active; Activity (Rattus norvegicus [30]): inactive; Activity (Rattus norvegicus [31]): inactive; Activity (Rattus norvegicus [32]): inactive; PI (Rattus norvegicus [11]): <10.79; Activity (Rattus norvegicus [33]): Non-toxic; Activity (Rattus norvegicus [34]): Non-toxic; Activity (Rattus norvegicus [35]): Non-toxic; Activity (Rattus norvegicus [36]): Non-toxic; Activity (Rattus norvegicus [37]): Non-toxic; Activity (Mus musculus [23]): Toxic; Activity (Mus musculus [38]): Toxic
6 | CC[C@@H](C(N)=O)N1CCCC1=O | – | – | – | – | – | – | – | – | – | – | – | – | – | – | – | Time (Mus musculus [39]): 1 h; TD50 [40]: > 500 mg/kg
7 | O=C(c1ccccc1)N1CCN(CN2C(=O)NC(c3ccccc3)(C3CC3)C2=O)CC1 (centres undefined) | Non-toxic | Non-toxic | Non-toxic | Non-toxic | Non-toxic | Non-toxic | Non-toxic | – | – | – | 100 | 2.17 | 100 | – | – | Activity (Rattus norvegicus [7]): inactive; Activity (Rattus norvegicus [8]): inactive; Activity (Mus musculus [28]): Toxic; Activity (Mus musculus [19]): Toxic
8 | CCC1(C)CC(=O)NC1=O (centres undefined) [ETHOSUXIMIDE] | – | – | – | – | – | Non-toxic | Non-toxic | > 500 | > 500 | 2 | – | – | – | 300 | 100 | Activity (Rattus norvegicus [41]): inactive; Activity (Rattus norvegicus [32]): inactive; Activity (Rattus norvegicus [33]): Non-toxic; Activity (Rattus norvegicus [34]): Non-toxic; Activity (Rattus norvegicus [35]): Non-toxic; Activity (Rattus norvegicus [36]): Non-toxic; Activity (Rattus norvegicus [37]): Non-toxic; Activity (Mus musculus [42]): inactive; Activity (Mus musculus [43]): inactive; PI (Rattus norvegicus [44]): >3
